test system: Apolipoprotein B Secretion from HepG2 Cells; assay: Inhibition of Apolipoprotein B secretion from HepG2 cells (ELISA); assay type: cell-based, human; conditions: HepG2 cells, 22-24 hours incubation, ApoB ELISA; Low/High IC50 columns give the 95% confidence interval
Procedure: Inhibition of Apolipoprotein B Secretion from HepG2 Cells
To assess the inhibitory effect of the compounds of the invention on ApoB production, an endogenously ApoB producing cell line, HEPG2, was implemented in an in vitro ELISA assay. HEPG2 cells are plated at 25,000 per well (96-well plates) in media consisting of DMEM Low Glucose, 1% NEAA (non-essential amino acids), 10% FBS (heat inactivated), 1% L-Glutamine, and 1% Antimycotic-Antibiotic and incubated for 16-18 hours at 37° C. and 5% CO2. After the 16-18 hour incubation, a 12 point half-log serial of the inhibitor (1000 nM-0.003 nM) is prepared, and 1.5 ul of the serial dilution is added to HEPG2 cells, which have had their media decanted and replaced with 148 ul of fresh media, and the cells are incubated for 22-24 hours at 37° C. and 5% CO2. Two and a half hours before the 22-24 hour incubation period is completed, Nunc Maxisorp plates are coated with 100 ul of primary (coating) antibody (goat anti-apoB), diluting to a ratio of 1:1000 in 1% Carbonate-Bicarbonate Coating Buffer and incubated for at least 2 hours at room temperature before the primary antibody is decanted and the wells of the microplate are washed with 200 ul of washing buffer (1% PBS, 0.05% Tween20). Next, 200 ul of blocking buffer (1% PBS, 1:500 Western Block, 5 mg/ml BSA) is added to the wells of the microplate, and incubated for at least 30 mins. Following the 22-24 hours incubation period, cell plates are removed from the incubator, 20 ul of supernatant from each well is aspirated, added to a corresponding well in 96 well plate containing 140 ul of diluent (1:2-Blocking Buffer: Washing Buffer), and mixed. Then, 120 ul is aspirated from the dilutent-supernatant plate, added to the blocked Nunc Maxisorp 96 well plate, and placed at room temperature on a shaker to mix for at least 2 hours. The secondary (capture) antibody (mouse anti-human apoB) is prepared at a ratio of 1:4000, and the detection antibody (goat anti-mouse HRP conjugated antibody) at a ratio of 1:10,000. For each antibody, 100 ul is added to each well of the microplate and the microplate is incubated at room temperature for 2 hours, washing the microplates between each antibody addition. Colorimetric development is achieved by adding 50 ul of TMB reagent to each well, incubating for 5 mins at room temperature, then adding 50 ul of 2M Sulfuric Acid to each well. Absorbance at 450 nm is monitored in an Envision plate reader to measure the amount of ApoB formed.
Results reported as average IC50, low and high IC50 range (95% confidence interval).

| Structure (SMILES) | IC50 |
| --- | --- |
| CCOC(=O)C1(COC(=O)Cc2ccc(NC(=O)c3ccccc3-c3ccc(C(F)(F)F)cc3)c(C(=O)N(C)C)c2)NC(=O)c2ccccc21 (centres unmarked) [Example 25] | 297 nM |
| CN(C)C(=O)c1cc(CC(=O)OCC2(C(=O)OCc3ccccc3)c3ccccc3C(=O)N2C)ccc1NC(=O)c1ccccc1-c1ccc(C(F)(F)F)cc1 (centres unmarked) [Example 23] | 0.333 nM |
| CCOC(=O)C1(COC(=O)Cc2ccc(NC(=O)c3cccc(C)c3-c3ccc(C(F)(F)F)cc3)c(C(=O)N(C)C)c2)c2ncccc2C(=O)N1CC (centres unmarked) [Example 48, Ethyl 7-({2-[3-(Dimethylcarbamoyl)-4-({[6-methyl-4′-(trifluoromethyl)biphenyl-2-yl]carbonyl}amino)phenyl]acetoxy}methyl)-6-ethyl-5-oxo-6,7-dihydro-5H-pyrrolo[3,4-b]pyridine-7-carboxylate] | 0.203 nM |
| COC(=O)C1(COC(=O)Cc2ccc(NC(=O)c3ccccc3-c3ccc(C(F)(F)F)cc3)c(C(=O)N(C)C)c2)CCc2ccccc21 (centres unmarked) [Example 34] | 5.54 nM |
| CCOC(=O)C1(COC(=O)Cc2ccc(NC(=O)c3ccccc3-c3ccc(C(F)(F)F)cc3)c(C(=O)N(C)C)c2)CCc2ccccc21 (centres unmarked) [Example 35] | 0.46 nM |
| CCOC(=O)C1(COC(=O)Cc2ccc(NC(=O)c3ccccc3-c3ccc(C(F)(F)F)cc3)c(C(=O)N(C)C)c2)c2ccccc2C(=O)N1CC (centres unmarked) [Example 20] | 1.76 nM |
| CCOC(=O)C1(COC(=O)Cc2ccc(NC(=O)c3cccc(C)c3-c3ccc(C(F)(F)F)cc3)c(C(=O)N(C)C)c2)NC(=O)c2ccccc21 (centres unmarked) [Example 12] | 156 nM |
| Cc1cccc(C(=O)Nc2ccc(CC(=O)OCC3(C(=O)OCc4ccccc4)c4ccccc4C(=O)N3C)cc2C(=O)N(C)C)c1-c1ccc(C(F)(F)F)cc1 (single isomer, unassigned; (+)) [Example 10, (+)-Benzyl 1-({2-[3-(Dimethylcarbamoyl)-4-({[6-methyl-4′-(trifluoromethyl)biphenyl-2-yl]carbonyl}amino)phenyl]acetoxy}methyl)-2-methyl-3-oxoisoindoline-1-carboxylate] | 14.1 nM |

same assay, conditions: Homo sapiens, HepG2, HepG2 cells, 22-24 hours incubation, ApoB ELISA; Low/High IC50 columns give the 95% confidence interval

| Structure (SMILES) | IC50 |
| --- | --- |
| CCOC(=O)C1(COC(=O)Cc2ccc(NC(=O)c3cccc(C)c3-c3ccc(C(F)(F)F)cc3)c(C(=O)N(C)C)c2)c2ccccc2C(=O)N1C (centres unmarked) [Example 7] | 15.6 nM |
| CCOC(=O)C1(COC(=O)Cc2ccc(NC(=O)c3cccc(C)c3-c3ccc(C(F)(F)F)cc3)c(C(=O)N(C)C)c2)c2ncccc2C(=O)N1CC (racemic) [Example 44] | 0.328 nM |
| CCOC(=O)[C@]1(COC(=O)Cc2ccc(NC(=O)c3ccc(C)cc3-c3ccc(C(C)(C)C)cc3)c(C(=O)N(C)C)c2)c2ccccc2C(=O)N1C [Example 68, ethyl (1R)-1-({2-[4-{[(4′-tert-butyl-5-methylbiphenyl-2-yl)carbonyl]amino}-3-(dimethylcarbamoyl)phenyl]acetoxy}methyl)-2-methyl-3-oxoisoindoline-1-carboxylate] | 0.178 nM |
| CCOC(=O)C1(COC(=O)Cc2ccc(NC(=O)c3ccccc3-c3ccc(C(F)(F)F)cc3)c(C(=O)N(C)C)c2)c2ccccc2C(=O)N1C(C)C (racemic) [Example 14] | 2.16 nM |
| CCOC(=O)C1(COC(=O)Cc2ccc(NC(=O)c3ccccc3-c3ccc(C(F)(F)F)cc3)c(C)c2)OC(=O)c2ccccc21 (centres unmarked) [Example 40] | 159 nM |
| CCOC(=O)C1(COC(=O)Cc2ccc(NC(=O)c3ccccc3-c3ccc(C(F)(F)F)cc3)c(C(=O)N(C)C)c2)c2ccccc2C(=O)N1C (centres unmarked) [Example 13] | 7.18 nM |
| CCOC(=O)C1(COC(=O)Cc2ccc(NC(=O)c3ccccc3-c3ccc(C(F)(F)F)cc3)c(C(=O)N(C)C)c2)CCCc2cccnc21 (racemic) [Example 42] | 0.529 nM |
| CCOC(=O)C1(COC(=O)Cc2ccc(NC(=O)c3ccccc3-c3ccc(OC(C)C)cc3)c(C(=O)N(C)C)c2)c2ccccc2C(=O)N1C (centres unmarked) [Example 54, ethyl 1-({2-[3-(dimethylcarbamoyl)-4-{[(4′-isopropoxybiphenyl-2-yl)carbonyl]amino}phenyl]acetoxy}methyl)-2-methyl-3-oxoisoindoline-1-carboxylate] | 0.124 nM |
| Cc1cccc(C(=O)Nc2ccc(CC(=O)OCC3(C(=O)OCc4ccccc4)c4ccccc4C(=O)N3C)cc2C(=O)N(C)C)c1-c1ccc(C(F)(F)F)cc1 (racemic) [Example 8] | 0.436 nM |
| CCOC(=O)[C@]1(COC(=O)Cc2ccc(NC(=O)c3ccccc3-c3ccc(C(C)(C)C)cc3)c(C(=O)N(C)C)c2)c2ccccc2C(=O)N1C [Example 66, ethyl (1R)-1-({2-[4-{[(4′-tert-butylbiphenyl-2-yl)carbonyl]amino}-3-(dimethylcarbamoyl)phenyl]acetoxy}methyl)-2-methyl-3-oxoisoindoline-1-carboxylate] | 0.206 nM |
| CCN1C(=O)c2ccccc2C1(COC(=O)Cc1ccc(NC(=O)c2cccc(C)c2-c2ccc(C(F)(F)F)cc2)c(C(=O)N(C)C)c1)C(=O)OC (racemic) [Example 65, methyl 1-({2-[3-(dimethylcarbamoyl)-4-({[6-methyl-4′-(trifluoromethyl)biphenyl-2-yl]carbonyl}amino)phenyl]acetoxy}methyl)-2-ethyl-3-oxoisoindoline-1-carboxylate] | 0.38 nM |
| CCOC(=O)C1(COC(=O)Cc2ccc(NC(=O)c3cccc(C)c3-c3ccc(OC(C)C)cc3)c(C(=O)N(C)C)c2)c2ccccc2C(=O)N1C (centres unmarked) [Example 51, ethyl 1-({2-[3-(dimethylcarbamoyl)-4-{[(4′-isopropoxy-6-methylbiphenyl-2-yl)carbonyl]amino}phenyl]acetoxy}methyl)-2-methyl-3-oxoisoindoline-1-carboxylate] | 0.159 nM |
| CCOC(=O)[C@]1(COC(=O)Cc2ccc(NC(=O)c3ccccc3-c3ccccc3)c(C(=O)N(C)C)c2)c2ccccc2C(=O)N1C [Example 74, ethyl (1R)-1-[(2-{4-[(biphenyl-2-ylcarbonyl)amino]-3-(dimethylcarbamoyl)phenyl}acetoxy)methyl]-2-methyl-3-oxoisoindoline-1-carboxylate] | 1.28 nM |
| CCOC(=O)[C@]1(COC(=O)Cc2ccc(NC(=O)c3ccccc3-c3ccc(C(C)C)cc3)c(C(=O)N(C)C)c2)c2ccccc2C(=O)N1C [Example 73, ethyl (1R)-1-({2-[3-(dimethylcarbamoyl)-4-{[(4′-isopropylbiphenyl-2-yl)carbonyl]amino}phenyl]acetoxy}methyl)-2-methyl-3-oxoisoindoline-1-carboxylate] | 0.162 nM |
| CCOC(=O)C1(COC(=O)Cc2ccc(NC(=O)c3ccccc3-c3ccc(C(F)(F)F)cc3)c(C(=O)N(C)C)c2)c2ccccc2C(=O)N1CC(F)(F)F (racemic) [Example 16] | 2.73 nM |
| CCOC(=O)C1(COC(=O)Cc2ccc(NC(=O)c3ccccc3-c3ccc(C(F)(F)F)cc3)c(C(=O)N(C)C)c2)OC(=O)c2ccccc21 (racemic) [Example 30] | 6.5 nM |
| CCOC(=O)C1(COC(=O)Cc2ccc(NC(=O)c3ccccc3-c3ccc(C(F)(F)F)cc3)c(Cl)c2)c2ccccc2C(=O)N1C (centres unmarked) [Example 6] | 4.77 nM |
| CCOC(=O)[C@]1(COC(=O)Cc2ccc(NC(=O)c3cccc(C)c3-c3ccc(C(C)(C)C)cc3)c(C(=O)N(C)C)c2)c2ccccc2C(=O)N1C [Example 67, ethyl (1R)-1-({2-[4-{[(4′-tert-butyl-6-methylbiphenyl-2-yl)carbonyl]amino}-3-(dimethylcarbamoyl)phenyl]acetoxy}methyl)-2-methyl-3-oxoisoindoline-1-carboxylate] | 0.244 nM |
| CCOC(=O)C1(COC(=O)Cc2ccc(NC(=O)c3ccccc3-c3ccc(C(F)(F)F)cc3)c(C(=O)N(C)C)c2)CCCc2ccccc21 (racemic) [Example 41] | 0.701 nM |
| CCOC(=O)[C@]1(COC(=O)Cc2ccc(NC(=O)c3ccccc3-c3ccc(C(F)(F)F)cc3)c(C(=O)N(C)C)c2)c2ccccc2C(=O)N1C [Example 1, Ethyl 1R-({2-[3-(dimethylcarbamoyl)-4-({[4′-(trifluoromethyl)biphenyl-2-yl]carbonyl}amino)phenyl]acetoxy}methyl)-2-methyl-3-oxoisoindoline-1-carboxylate] | 0.495 nM |
| CCOC(=O)[C@]1(COC(=O)Cc2ccc(NC(=O)c3cccc(OC)c3-c3ccccc3)c(C(=O)N(C)C)c2)c2ccccc2C(=O)N1C [Example 64, ethyl (1R)-1-({2-[3-(dimethylcarbamoyl)-4-{[(6-methoxybiphenyl-2-yl)carbonyl]amino}phenyl]acetoxy}methyl)-2-methyl-3-oxoisoindoline-1-carboxylate] | 0.536 nM |

— patent US20130072519A1, “2-PHENYL BENZOYLAMIDES” (priority 2010, published 2013)
